Source: US4160829A, “Antibacterial 1,2,4-oxadiazolylacetamido cephalosporins” (Gist-Brocades N.V., priority 1972, dated 1979)
Converted amounts (≈) assume the structure as drawn.

Columns and labels:
Prot.mirab. L 93 = assay: agar serial dilution test; assay type: cell-based, Proteus mirabilis; details: Proteus mirabilis; agar serial dilution, 24 hours, 37° C.; read-out: minimal inhibitory concentration (MIC)
Strep.haem. A 266 = assay: agar serial dilution test; assay type: cell-based, Streptococcus haemolyticus; details: Streptococcus; agar serial dilution, 24 hours, 37° C.; read-out: minimal inhibitory concentration (MIC)
Prot.morg. 2241 = assay: agar serial dilution test; assay type: cell-based; details: agar serial dilution, 24 hours, 37° C.
Escherichia coli = assay: protection test; assay type: in vivo; details: ip
[1] = tested on: Pseud.aerug. Wyeth A 1058; assay: agar serial dilution test; assay type: cell-based; details: agar serial dilution, 24 hours, 37° C.
Shig.equir. T 3 = assay: agar serial dilution test; assay type: cell-based; details: 24 hours, 37° C.
Staph.aureus A 355 [2] = assay: agar serial dilution test; details: agar serial dilution, 24 hours, 37° C.; penicillinase-producing strain
Staph.aureus A 2000 [3] = assay: agar serial dilution test; assay type: cell-based, Staphylococcus aureus; details: agar serial dilution, 24 hours, 37° C.
Strep. faec. L 80 = assay: agar serial dilution test; assay type: cell-based, Streptococcus faecalis; details: agar serial dilution, 24 hours, 37° C.
in vivo = assay: in vivo; design: species or system rabbits; details: rabbit, im, 50 mg/kg
Experimental: Blood levels of the above mentioned test compound and of cephalotin were determined after an intramuscular administration of 50 mg/kg of these compounds in an aqueous solution in rabbits. After half an hour for the compound of Example 10, a value of 38.3 μg/ml was found and for cephalotin 33.9 μg/ml. In urine, 35.9% of the administered compound of Example 10 was retrieved, while in the case of cephalotin 22.2% was retrieved within six hours.

Haem.infl. A 1030 = assay: micro serial dilution test; assay type: cell-based; details: micro serial dilution (in brackets), about 18 hours, 30° C. or 37° C.
Pseud.aerug. 2396 = assay: agar serial dilution test; assay type: cell-based; details: agar serial dilution, 24 hours, 37° C.
Esch.coli U 20 = assay: agar serial dilution test; assay type: cell-based, Escherichia coli; details: Escherichia coli, U20; agar serial dilution, 24 hours, 37° C.; read-out: minimal inhibitory concentration (MIC)
[4] = tested on: Staph. aureus pen.resistant; assay: protection test; assay type: in vivo; details: Staphylococcus aureus, sc
Staph.aureus A 2001 [5] = assay: micro serial dilution test; assay type: cell-based, Staphylococcus aureus; details: micro serial dilution (in brackets), about 18 hours, 30° C. or 37° C.
acute toxicity in mice = details: mouse, in vivo, ip; mice (Swiss), one intraperitoneal administration
Experimental: (a) For sodium 7-[(3-methyl-1,2,4-oxadiazol-5-yl)-acetamido]-cephalosporanate (as prepared in Example 10), the acute toxicity was determined in mice (Swiss) with one intraperitoneal administration. The LD50 appeared to be >6000 mg/kg (Cephalotin-LD50 >6000 mg/kg).

Bac.Subt.ATCC 6633 = assay: agar serial dilution test; assay type: cell-based, Bacillus subtilis; details: agar serial dilution, 24 hours, 37° C.
Salm.typh. R 127 = assay: agar serial dilution test; assay type: cell-based; details: 24 hours, 37° C.
Pseud.aerug. H 10 = assay: agar serial dilution test; assay type: cell-based; details: agar serial dilution, 24 hours, 37° C.
Prot.rettg. A 821 = assay: agar serial dilution test; assay type: cell-based, Proteus rettgeri; details: agar serial dilution, 24 hours, 37° C.
Prot.mirab. H 3 = assay: agar serial dilution test; assay type: cell-based, Proteus mirabilis; details: Proteus mirabilis, 24 h, read-out: minimal inhibitory concentration (MIC), agar serial dilution, 24 hours, 37° C.
Staph.aureus A 2001 [6] = assay: agar serial dilution test; assay type: cell-based, Staphylococcus aureus; details: agar serial dilution, 24 hours, 37° C.
Salm.dubl. P 43 = assay: agar serial dilution test; assay type: cell-based, Salmonella dublin; details: agar serial dilution, 24 hours, 37° C.
Proteus rettgeri = assay: protection test; assay type: in vivo; details: Providencia rettgeri, sc; protection test, s.c.; read-out: ED50
Past.multo. A 723 = assay: agar serial dilution test; assay type: cell-based, Pasteurella multocida; details: agar serial dilution, 24 hours, 37° C.
Prot.mirab. A 1200 = assay: agar serial dilution test; assay type: cell-based, Proteus mirabilis; details: agar serial dilution, 24 hours, 37° C.
Bruc.melit. A 488 = assay: microbe, parasite or virus in culture; assay type: cell-based; details: Brucella melitensis, 24 h, read-out: minimal inhibitory concentration (MIC)
Staph.aureus A 355 [7] = assay: micro serial dilution test; assay type: cell-based, Staphylococcus aureus; details: micro serial dilution (in brackets), about 18 hours, 30° C. or 37° C.; penicillinase-producing strain
Klebsiella pneumoniae = assay: protection test; assay type: in vivo; details: ip, protection test, i.p., read-out: ED50
Staph.aureus A 2000 [8] = assay: micro serial dilution test; assay type: cell-based, Staphylococcus aureus; details: micro serial dilution (in brackets), about 18 hours, 30° C. or 37° C.
Staph.aureus A 321 = assay: agar serial dilution test; assay type: cell-based, Staphylococcus aureus; details: agar serial dilution, 24 hours, 37° C.

CC(=O)OCC1=C(C(=O)O)N2C(=O)[C@@H](NC(=O)Cc3nc(C)no3)[C@H]2SC1 [Example 10, 7-[(3-methyl-1,2,4-oxadiazol-5-yl)-acetamido]-cephalosporanic acid]
MIC (Prot.mirab. L 93): 1.5 µg/mL (≈ 3.78 µM)
MIC (Strep.haem. A 266): 0.03 µg/mL (≈ 0.0757 µM)
minimal inhibitory concentration (MIC) (Prot.morg. 2241): 50 µg/mL (≈ 126 µM)
ED50 (Escherichia coli): 120 mg/kg
minimal inhibitory concentration (MIC) [1]: > 100 µg/mL
minimal inhibitory concentration (MIC) (Shig.equir. T 3): 3 µg/mL (≈ 7.57 µM)
minimal inhibitory concentration (MIC) (Staph.aureus A 355 [2]): 1 µg/mL (≈ 2.52 µM)
minimal inhibitory concentration (MIC) (Staph.aureus A 2000 [3]): 1 µg/mL (≈ 2.52 µM)
minimal inhibitory concentration (MIC) (Strep. faec. L 80): 50 µg/mL (≈ 126 µM)
concentration at 0.5 h (in vivo): 38300 ng/mL
minimal inhibitory concentration (MIC) (Haem.infl. A 1030): 125 µg/mL (≈ 315 µM)
minimal inhibitory concentration (MIC) (Pseud.aerug. 2396): > 100 µg/mL
MIC (Esch.coli U 20): 6 µg/mL (≈ 15.1 µM)
ED50 [4]: 31 mg/kg
minimal inhibitory concentration (MIC) (Staph.aureus A 2001 [5]): 0.3 µg/mL (≈ 0.757 µM)
LD50 (acute toxicity in mice): > 6000 mg/kg
minimal inhibitory concentration (MIC) (Bac.Subt.ATCC 6633): 0.25 µg/mL (≈ 0.631 µM)
minimal inhibitory concentration (MIC) (Salm.typh. R 127): 3 µg/mL (≈ 7.57 µM)
minimal inhibitory concentration (MIC) (Pseud.aerug. H 10): > 100 µg/mL
minimal inhibitory concentration (MIC) (Prot.rettg. A 821): 3 µg/mL (≈ 7.57 µM)
MIC (Prot.mirab. H 3): 12.5 µg/mL (≈ 31.5 µM)
minimal inhibitory concentration (MIC) (Staph.aureus A 2001 [6]): 1 µg/mL (≈ 2.52 µM)
minimal inhibitory concentration (MIC) (Salm.dubl. P 43): 3 µg/mL (≈ 7.57 µM)
ED50 (Proteus rettgeri): 1.25 mg/kg
minimal inhibitory concentration (MIC) (Past.multo. A 723): 1.5 µg/mL (≈ 3.78 µM)
minimal inhibitory concentration (MIC) (Prot.mirab. A 1200): 6 µg/mL (≈ 15.1 µM)
MIC (Bruc.melit. A 488): 6 µg/mL (≈ 15.1 µM)
minimal inhibitory concentration (MIC) (Staph.aureus A 355 [7]): 0.6 µg/mL (≈ 1.51 µM)
ED50 (Klebsiella pneumoniae): 2.3 mg/kg
minimal inhibitory concentration (MIC) (Staph.aureus A 2000 [8]): 0.9 µg/mL (≈ 2.27 µM)
minimal inhibitory concentration (MIC) (Staph.aureus A 321): 0.25 µg/mL (≈ 0.631 µM)

O=C(O)Cc1nc(Cc2ccccc2)no1 [Example 12A, 3-benzyl-1,2,4-oxadiazol-5-yl-acetic acid]
antiphlogistic activity (antiphlogistic activity): antiphlogistic activity
